Our source for the survival vs thapsigargin 6.25 uM and survival values is PubChem BioAssay AID1352 (Sanford-Burnham Center for Chemical Genomics, 2008).

This experiment deals with differentiated PC12, thapsigargin-induced death, ATPlite luminescence, 24 h. In words: rescue of neuronal PC12 from thapsigargin, SAR follow-up, cell-based, differentiated PC12, rat pheochromocytoma, ATP luminescence (AID 1352). The following applies: at 25 µM, stronger effect = higher value; for survival: measured here: survival.

The source made the active and inactive calls.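 Rule for the calls: active = compound at 25 µM lifting cell survival 30% over the thapsigargin-only control at any thapsigargin dose; inactive = the rest.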

In the case of `COc1ccc(C2CC(=O)C3=C(C2)Nc2ccccc2NC3c2cccc(Oc3ccccc3)c2)cc1OC` (stereo not drawn), the survival vs thapsigargin 6.25 uM is 25% (inactive). Besides, where the note is “thapsigargin 0.25 uM”, the survival stood at 21%. The compound further showed a survival (thapsigargin 1.25 uM) of 16%.
For the compound `CCOc1cc(C2Nc3ccccc3NC3=C2C(=O)CC(c2ccc(OC)cc2)C3)cc(Cl)c1O` (stereo not drawn), the survival vs thapsigargin 6.25 uM is 44%. The survival (thapsigargin 0.25 uM) worked out at 59%. Moreover, under “thapsigargin 1.25 uM”, the survival amounted to 38%.
The corresponding values for `CCOc1cccc(C2Nc3ccccc3NC3=C2C(=O)CC(c2ccc(OC)cc2)C3)c1` (stereo not drawn) are 32% (inactive), 26% and 19%.
`CCCOc1ccc(C2Nc3ccccc3NC3=C2C(=O)CC(c2ccc(OC)c(OC)c2)C3)cc1` (stereo not drawn): the survival vs thapsigargin 6.25 uM was 33% (inactive). Besides, the survival (thapsigargin 0.25 uM) was 32%. For the same compound, the survival (thapsigargin 1.25 uM) amounted to 22%.
The corresponding values for `COc1ccc(C2CC(=O)C3=C(C2)Nc2ccccc2NC3c2cc(C)ccc2C)cc1` (stereo not drawn) are 38%, 51% and 29%.
The corresponding values for `CSc1ccc(C2Nc3ccccc3NC3=C2C(=O)CC(c2ccccc2)C3)cc1` (stereo not drawn) are 30% (inactive), 22% and 17%.
On to `COc1ccc(C2CC(=O)C3=C(C2)Nc2ccccc2NC3c2ccccc2C(F)(F)F)cc1OC` (stereo not drawn), for which the survival vs thapsigargin 6.25 uM is 34% (inactive). Moreover, where the note is “thapsigargin 0.25 uM”, the survival is 30%. The same compound returned a survival (thapsigargin 1.25 uM) of 25%.
For `CC1(C)CC(=O)C2=C(C1)Nc1ccccc1NC2c1ccc(-c2ccccc2)cc1` (stereo not drawn), in that order: 81%, 76% and 41%.
For `O=C1CC(c2ccccc2)CC2=C1C(c1c(F)cccc1Cl)Nc1ccccc1N2` (stereo not drawn), in that order: 39% (inactive), 38% and 19%.
For `COc1ccc(C2CC(=O)C3=C(C2)Nc2ccccc2NC3c2cccc(C(F)(F)F)c2)cc1OC` (stereo not drawn), in that order: 78%, 44% and 48%.
As to `COc1ccc(C2CC(=O)C3=C(C2)Nc2ccccc2NC3c2cccc(Br)c2)cc1OC` (stereo not drawn), the survival vs thapsigargin 6.25 uM was 54%. Where the note is “thapsigargin 0.25 uM”, this compound showed a survival of 54%. Also, the survival (thapsigargin 1.25 uM) worked out at 37%.
